One assay concerns DLD-1 BRCA2(−/−) Cell. Briefly: Cell viability assay (Resazurin) in DLD1-BRCA2 cells. The format is cell-based. As to conditions: 14 days, 1,500 cells/well, final DMSO 1%. In short, it runs like this:
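DLD1-BRCA2 KG cells seeded at 1,500/well (parental 600/well) in RPMI-1640 with 10% FBS, compound added after 4 h (1% DMSO), media replaced every 3-4 days over 14 days at 37° C. Viability read by resazurin (0.1 mg/ml, 4 h) fluorescence at Ex/Em 560/590 nm; IC50 fitted.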
“(S)-N-(3-(6-aminopyridazin-3-yl)prop-2-yn-1- yl)-2-(6-methyl-4-(trifluoromethyl)pyridin-2- yl)-N-(m-tolyl)isothiazolidine-3-carboxamide 1,1-dioxide [Example 19]” had an IC50 of 1.1 to 5 µM.

The assay is the same for the next values; noted with them: Homo sapiens, DLD-1, 336 h, 14 days, 1,500 cells/well, final DMSO 1%.
Take `Cc1cc(C(F)(F)F)cc(N2[C@H](C(=O)N(CC#Cc3cncn3C)c3ccc(F)c(C)c3)CCS2(=O)=O)n1` [Example 102, (S)-N-(4-fluoro-3-methylphenyl)-N-(3-(1-methyl-1H-imidazol-5-yl)prop-2-yn-1-yl)-2-(6-methyl-4-(trifluoromethyl)pyridin-2-yl)isothiazolidine-3-carboxamide 1,1-dioxide]: the half-inhibitory concentration (IC50) fell in the range of 1.1 to 5 µM. For `Cc1cc(C(F)(F)F)cc(N2[C@H](C(=O)N(CC#Cc3ncnc(N4CCOCC4)n3)c3ccc(F)c(C)c3)CCS2(=O)=O)n1` [Example 103, (S)-N-(4-fluoro-3-methylphenyl)-2-(6-methyl-4-(trifluoromethyl)pyridin-2-yl)-N-(3-(4-morpholino-1,3,5-triazin-2-yl)prop-2-yn-1-yl)isothiazolidine-3-carboxamide 1,1-dioxide], the concentration for half-maximal inhibition (IC50) was below 1 µM. In the case of `Cc1cc(C(F)(F)F)cc(N2[C@H](C(=O)N(CC#Cc3nc(C(N)=O)co3)c3ccc(F)c(C)c3)CCS2(=O)=O)n1` [Example 104, (S)-2-(3-(N-(4-fluoro-3-methylphenyl)-2-(6-methyl-4-(trifluoromethyl)pyridin-2-yl)-1,1-dioxidoisothiazolidine-3-carboxamido)prop-1-yn-1-yl)oxazole-4-carboxamide], the IC50 was below 1 µM. `Cc1cc(C(F)(F)F)cc(N2[C@H](C(=O)N(CC#Cc3ccc(C(N)=O)cc3)c3ccc(F)c(C)c3)CCS2(=O)=O)n1` [Example 105, (S)-N-(3-(4-carbamoylphenyl)prop-2-yn-1-yl)-N-(4-fluoro-3-methylphenyl)-2-(6-methyl-4-(trifluoromethyl)pyridin-2-yl)isothiazolidine-3-carboxamide 1,1-dioxide]: the half-maximal inhibitory concentration (IC50) lay within 1.1 to 5 µM. On the same count and under the same terms, next, `Cc1cc(C(F)(F)F)cc(N2[C@H](C(=O)N(CC#Cc3cccc(C(N)=O)c3)c3ccc(F)c(C)c3)CCS2(=O)=O)n1` [Example 106, (S)-N-(3-(3-carbamoylphenyl)prop-2-yn-1-yl)-N-(4-fluoro-3-methylphenyl)-2-(6-methyl-4-(trifluoromethyl)pyridin-2-yl)isothiazolidine-3-carboxamide 1,1-dioxide]: 1.1 to 5 µM; `Cc1cccc(N(CC#Cc2ccc(N)nn2)C(=O)[C@@H]2CN(C)S(=O)(=O)N2c2cc(C(F)(F)F)cc(C)n2)c1` [Example 107, (3S)-N-[3-(6-aminopyridazin-3-yl)prop-2-ynyl]-5-methyl-2-[6-methyl-4-(trifluoromethyl)-2-pyridyl]-N-(m-tolyl)-1,1-dioxo-1,2,5-thiadiazolidine-3-carboxamide]: 1.1 to 5 µM; `Cc1cccc(N(CC#Cc2cnc(N)cn2)C(=O)[C@@H]2CN(C)S(=O)(=O)N2c2cc(C(F)(F)F)cc(C)n2)c1` [Example 108, (S)-N-(3-(5-aminopyrazin-2-yl)prop-2-yn-1-yl)-5-methyl-2-(6-methyl-4-(trifluoromethyl)pyridin-2-yl)-N-(m-tolyl)-1,2,5-thiadiazolidine-3-carboxamide 1,1-dioxide]: 1.1 to 5 µM.

`Cc1cc(C(F)(F)F)cc(N2[C@H](C(=O)N(CC#Cc3ccc(N)nn3)c3ccc(F)c(C)c3)CN(C)S2(=O)=O)n1` [Example 109, (S)-N-(3-(6-aminopyridazin-3-yl)prop-2-yn-1-yl)-N-(4-fluoro-3-methylphenyl)-5-methyl-2-(6-methyl-4-(trifluoromethyl)pyridin-2-yl)-1,2,5-thiadiazolidine-3-carboxamide 1,1-dioxide] gave an IC50 of 1.1 to 5 µM. `Cc1cc(C(F)(F)F)cc(N2[C@H](C(=O)N(CC#Cc3ccc(N)nn3)c3ccc(F)c(C)c3)CN(C(C)C)S2(=O)=O)n1` [Example 110, (S)-N-(3-(6-aminopyridazin-3-yl)prop-2-yn-1-yl)-N-(4-fluoro-3-methylphenyl)-5-isopropyl-2-(6-methyl-4-(trifluoromethyl)pyridin-2-yl)-1,2,5-thiadiazolidine-3-carboxamide 1,1-dioxide]: the IC50 was in the range of 1.1 to 5 µM. Take `Cc1cc(C(F)(F)F)cc(N2[C@H](C(=O)N(CC#Cc3ccc(C(=O)N(C)C)nc3)c3ccc(F)c(C)c3)CCS2(=O)=O)n1` [Example 111, (S)-N-(3-(6-(dimethylcarbamoyl)pyridin-3-yl)prop-2-yn-1-yl)-N-(4-fluoro-3-methylphenyl)-2-(6-methyl-4-(trifluoromethyl)pyridin-2-yl)isothiazolidine-3-carboxamide 1,1-dioxide]: the IC50 was below 1 µM. The compound `Cc1cc(C(F)(F)F)cc(N2[C@H](C(=O)N(CC#Cc3ccc(C#N)nc3)c3ccc(F)c(C)c3)CCS2(=O)=O)n1` [Example 115, (S)-N-(3-(6-cyanopyridin-3-yl)prop-2-yn-1-yl)-N-(4-fluoro-3-methylphenyl)-2-(6-methyl-4-(trifluoromethyl)pyridin-2-yl)isothiazolidine-3-carboxamide 1,1-dioxide] came in with an IC50 below 1 µM. As for `Cc1cc(C(F)(F)F)cc(N2[C@H](C(=O)N(CC#Cc3ccc(-c4ncon4)nc3)c3ccc(F)c(C)c3)CCS2(=O)=O)n1` [Example 116, (S)-N-(3-(6-(1,2,4-oxadiazol-3-yl)pyridin-3-vl)prop-2-yn-1-yl)-N-(4-fluoro-3-methylphenyl)-2-(6-methyl-4-(trifluoromethyl)pyridin-2-yl)isothiazolidine-3-carboxamide 1,1-dioxide], the IC50 is below 1 µM. The compound `Cc1cc(C(F)(F)F)cc(N2[C@H](C(=O)N(CC#Cc3ccc(C(N)=O)nc3C)c3ccc(F)c(C)c3)CCS2(=O)=O)n1` [Example 117, (S)-N-(3-(6-carbamoyl-2-methylpyridin-3-yl)prop-2-yn-1-yl)-N-(4-fluoro-3-methylphenyl)-2-(6-methyl-4-(trifluoromethyl)pyridin-2-yl)isothiazolidine-3-carboxamide 1,1-dioxide] registered an IC50 below 1 µM.

The IC50 is the point on the concentration scale where inhibition reaches its midpoint. Read a low IC50 as inhibition by little substance.

These data come from patent US20260297083A1, “SUBSTITUTED ACETYLENE COMPOUND DERIVATIVES AND THEIR PHARMACEUTICAL USE” (AVELOS THERAPEUTICS INC., priority 2023, published 2026).
